pIC50: −log10 of the molar value. Values belong to the compound of their own block, whether it stands above or below them.
System: 922993-354-T-J3-PDC complex spheroids, viability
Test: Anticancer human tumor 922993-354-T-J3-PDC patient-derived endometrial carcinoma cell line growth inhibition [GQUAD]
Settings: for pIC50: curve of first compound; for viability, T/C: stronger effect = lower value
Method in brief: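 Viability of tumor cells grown as complex spheroids with endothelial and stromal cells, exposed to drug combinations. Top concentration at or near clinical Cmax (else 10 microM), diluted in half-log increments.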

[1] = second compound 0.0316 µM, first compound 0.0316 µM
[2] = second compound 0.0316 µM, first compound 0.1 µM
[3] = second compound 0.0316 µM, first compound 0.316 µM
[4] = second compound 0.0316 µM, first compound 1 µM
[5] = second compound 0.0316 µM, first compound 3.16 µM
[6] = second compound 0.0316 µM, first compound 10 µM
[7] = second compound 0.1 µM, first compound 0.0316 µM
[8] = second compound 0.1 µM, first compound 0.1 µM
[9] = second compound 0.1 µM, first compound 0.316 µM
[10] = second compound 0.1 µM, first compound 1 µM
[11] = second compound 0.1 µM, first compound 3.16 µM
[12] = second compound 0.1 µM, first compound 10 µM
[13] = second compound 0.316 µM, first compound 0.0316 µM
[14] = second compound 0.316 µM, first compound 0.1 µM
[15] = second compound 0.316 µM, first compound 0.316 µM
[16] = second compound 0.316 µM, first compound 1 µM
[17] = second compound 0.316 µM, first compound 3.16 µM
[18] = second compound 0.316 µM, first compound 10 µM
[19] = second compound 1 µM, first compound 0.0316 µM
[20] = second compound 1 µM, first compound 0.1 µM
[21] = second compound 1 µM, first compound 0.316 µM
[22] = second compound 1 µM, first compound 1 µM
[23] = second compound 1 µM, first compound 3.16 µM
[24] = second compound 1 µM, first compound 10 µM
[25] = second compound 3.16 µM, first compound 0.0316 µM
[26] = second compound 3.16 µM, first compound 0.1 µM
[27] = second compound 3.16 µM, first compound 0.316 µM
[28] = second compound 3.16 µM, first compound 1 µM
[29] = second compound 3.16 µM, first compound 3.16 µM
[30] = second compound 3.16 µM, first compound 10 µM
[31] = second compound 10 µM, first compound 0.0316 µM
[32] = second compound 10 µM, first compound 0.1 µM
[33] = second compound 10 µM, first compound 0.316 µM
[34] = second compound 10 µM, first compound 1 µM
[35] = second compound 10 µM, first compound 3.16 µM
[36] = second compound 10 µM, first compound 10 µM
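Further: spheroids exposed to compounds for seven days.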
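Wherever viability, T/C is given: 100% = DMSO vehicle control viability.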

SMILES: COc1cccc2c1C(=O)c1c(O)c3c(c(O)c1C2=O)CC(O)(C(=O)CO)CC3OC1CC(N)C(O)C(C)O1 (stereo unspecified) + CN(C)c1ccc(Nc2c3ccc(NC(=O)CCN4CCCC4)cc3nc3cc(NC(=O)CCN4CCCC4)ccc23)cc1
pIC50 (second compound 0.0316 µM): 5.78
pIC50 (second compound 0.1 µM): 5.55
pIC50 (second compound 0.316 µM): 5.39
pIC50 (second compound 1 µM): 5.26
pIC50 (second compound 3.16 µM): 5.23
pIC50 (second compound 10 µM): 5.19
viability, T/C [1]: 91.1%
viability, T/C [2]: 98%
viability, T/C [3]: 108%
viability, T/C [4]: 61.5%
viability, T/C [5]: 45.6%
viability, T/C [6]: 25.1%
viability, T/C [7]: 103%
viability, T/C [8]: 85.5%
viability, T/C [9]: 90.6%
viability, T/C [10]: 87.8%
viability, T/C [11]: 45.4%
viability, T/C [12]: 34.1%
viability, T/C [13]: 94%
viability, T/C [14]: 94.8%
viability, T/C [15]: 67.3%
viability, T/C [16]: 78.5%
viability, T/C [17]: 55.7%
viability, T/C [18]: 31.9%
viability, T/C [19]: 92.4%
viability, T/C [20]: 85.6%
viability, T/C [21]: 76.3%
viability, T/C [22]: 73.9%
viability, T/C [23]: 78.7%
viability, T/C [24]: 20.8%
viability, T/C [25]: 103%
viability, T/C [26]: 98.4%
viability, T/C [27]: 104%
viability, T/C [28]: 86.5%
viability, T/C [29]: 81%
viability, T/C [30]: 26.4%
viability, T/C [31]: 112%
viability, T/C [32]: 120%
viability, T/C [33]: 93.4%
viability, T/C [34]: 97.6%
viability, T/C [35]: 80%
viability, T/C [36]: 32.6%

SMILES: Cc1[nH]c2ccccc2c1CCNCc1ccc(/C=C/C(=O)NO)cc1 + CN(C)c1ccc(Nc2c3ccc(NC(=O)CCN4CCCC4)cc3nc3cc(NC(=O)CCN4CCCC4)ccc23)cc1
pIC50 (second compound 0.0316 µM): < 6.50
pIC50 (second compound 0.1 µM): < 6.50
pIC50 (second compound 0.316 µM): < 6.50
pIC50 (second compound 1 µM): < 6.50
pIC50 (second compound 3.16 µM): < 6.50
pIC50 (second compound 10 µM): < 6.50
viability, T/C (second compound 0.0316 µM, first compound 0.000999 µM): 104%
viability, T/C (second compound 0.0316 µM, first compound 0.00316 µM): 78.9%
viability, T/C (second compound 0.0316 µM, first compound 0.00999 µM): 91.6%
viability, T/C [1]: 67.8%
viability, T/C (second compound 0.0316 µM, first compound 0.0999 µM): 56.4%
viability, T/C [3]: 62.5%
viability, T/C (second compound 0.1 µM, first compound 0.000999 µM): 73.2%
viability, T/C (second compound 0.1 µM, first compound 0.00316 µM): 85.3%
viability, T/C (second compound 0.1 µM, first compound 0.00999 µM): 94.2%
viability, T/C [7]: 86.2%
viability, T/C (second compound 0.1 µM, first compound 0.0999 µM): 78.1%
viability, T/C [9]: 53.1%
viability, T/C (second compound 0.316 µM, first compound 0.000999 µM): 94.5%
viability, T/C (second compound 0.316 µM, first compound 0.00316 µM): 94.4%
viability, T/C (second compound 0.316 µM, first compound 0.00999 µM): 89.1%
viability, T/C [13]: 93%
viability, T/C (second compound 0.316 µM, first compound 0.0999 µM): 73.1%
viability, T/C [15]: 61.7%
viability, T/C (second compound 1 µM, first compound 0.000999 µM): 70.3%
viability, T/C (second compound 1 µM, first compound 0.00316 µM): 95.9%
viability, T/C (second compound 1 µM, first compound 0.00999 µM): 101%
viability, T/C [19]: 76.1%
viability, T/C (second compound 1 µM, first compound 0.0999 µM): 97%
viability, T/C [21]: 59.5%
viability, T/C (second compound 3.16 µM, first compound 0.000999 µM): 101%
viability, T/C (second compound 3.16 µM, first compound 0.00316 µM): 81.4%
viability, T/C (second compound 3.16 µM, first compound 0.00999 µM): 94.8%
viability, T/C [25]: 82.3%
viability, T/C (second compound 3.16 µM, first compound 0.0999 µM): 78.7%
viability, T/C [27]: 57.4%
viability, T/C (second compound 10 µM, first compound 0.000999 µM): 121%
viability, T/C (second compound 10 µM, first compound 0.00316 µM): 118%
viability, T/C (second compound 10 µM, first compound 0.00999 µM): 106%
viability, T/C [31]: 112%
viability, T/C (second compound 10 µM, first compound 0.0999 µM): 110%
viability, T/C [33]: 61.3%

pIC50 (second compound 0.0316 µM): < 5.00
pIC50 (second compound 0.1 µM): < 5.00
pIC50 (second compound 0.316 µM): > 7.50
pIC50 (second compound 1 µM): > 7.50
pIC50 (second compound 3.16 µM): > 7.50
pIC50 (second compound 10 µM): 5.42
SMILES: O=C(c1cc(Cc2n[nH]c(=O)c3ccccc23)ccc1F)N1CCN(C(=O)C2CC2)CC1 + Cc1cnc(CNC(=O)c2c(=O)c3ccc(N4CCCN(C)CC4)nc3n3c2sc2ccccc23)cn1
viability, T/C [1]: 79.7%
viability, T/C [2]: 78%
viability, T/C [3]: 90.8%
viability, T/C [4]: 92.5%
viability, T/C [5]: 61.2%
viability, T/C [6]: 75%
viability, T/C [7]: 74.1%
viability, T/C [8]: 68.3%
viability, T/C [9]: 64.1%
viability, T/C [10]: 49.1%
viability, T/C [11]: 54.4%
viability, T/C [12]: 76%
viability, T/C [13]: 57.4%
viability, T/C [14]: 46.1%
viability, T/C [15]: 39.4%
viability, T/C [16]: 42%
viability, T/C [17]: 50.4%
viability, T/C [18]: 55.3%
viability, T/C [19]: 50.2%
viability, T/C [20]: 51.7%
viability, T/C [21]: 37.2%
viability, T/C [22]: 43.5%
viability, T/C [23]: 48.5%
viability, T/C [24]: 41.1%
viability, T/C [25]: 43.7%
viability, T/C [26]: 53.4%
viability, T/C [27]: 53.4%
viability, T/C [28]: 57.7%
viability, T/C [29]: 51.3%
viability, T/C [30]: 49.8%
viability, T/C [31]: 42.8%
viability, T/C [32]: 53.4%
viability, T/C [33]: 60.1%
viability, T/C [34]: 52.8%
viability, T/C [35]: 52%
viability, T/C [36]: 39.2%

From PubChem BioAssay AID2060489 (Molecular Pharmacology Branch, DTP, NCI, 2025)
